# Data from patent publication US10202334B2, “Pendant amines and derivatives as inhibitors of leukotriene A4 hydrolase” (Celtaxsys, Inc., priority 2016, dated 2019).
# Where two headings read alike, the source gives them in different places.
# Key:
# [1] = target: T1, LTA4 hydrolase peptidase activity (Homo sapiens, UniProt P09960); assay: Peptidase assay (hydrolysis of L-alanine-p-nitroanilide); type: biochemical
# T1 sequence (P09960 1-611): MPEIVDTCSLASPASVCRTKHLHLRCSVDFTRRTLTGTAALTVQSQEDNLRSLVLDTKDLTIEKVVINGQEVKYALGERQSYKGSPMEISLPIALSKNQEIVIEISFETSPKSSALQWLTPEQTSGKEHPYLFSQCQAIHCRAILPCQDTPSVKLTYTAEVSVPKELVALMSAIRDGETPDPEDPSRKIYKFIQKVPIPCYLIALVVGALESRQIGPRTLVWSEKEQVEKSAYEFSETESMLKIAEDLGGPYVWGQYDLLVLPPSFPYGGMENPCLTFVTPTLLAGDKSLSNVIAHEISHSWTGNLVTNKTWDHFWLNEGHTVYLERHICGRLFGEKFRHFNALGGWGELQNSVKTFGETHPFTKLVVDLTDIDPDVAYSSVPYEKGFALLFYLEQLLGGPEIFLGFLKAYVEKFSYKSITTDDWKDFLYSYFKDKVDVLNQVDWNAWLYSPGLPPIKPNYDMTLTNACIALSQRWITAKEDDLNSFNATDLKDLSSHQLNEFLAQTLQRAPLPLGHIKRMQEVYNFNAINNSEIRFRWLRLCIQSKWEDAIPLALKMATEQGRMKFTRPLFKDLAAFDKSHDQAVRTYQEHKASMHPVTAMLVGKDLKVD
# Experimental: Inhibition of peptidase activity was measured for the compounds of the invention by using methods similar to those described in Kull, F. et al., The Journal of Biological Chemistry 1999, 274 (49): 34683-34690.
# In brief, the enzyme (29 nM) was incubated with L-alanine-p-nitroanilide (1 mM) in 50 mM HEPES (pH 7.5), 100 mM KCL, 1% DMSO in the absence or presence of a compound of the invention for 1 hour at ambient temperature. Reaction was terminated by addition of acetic acid (1%). Formation of colored nitro-aniline was measured by the increase in absorbance at 405 nm in a Victor 2 plate reader (Wallac). Spontaneous hydrolysis of the substrate was corrected for by subtracting the absorbance of control incubations without enzyme.
# [2] = test system: production of LTB4 in whole blood; assay: Human whole blood assay (LTB4 release upon calcium ionophore, ELISA); type: cell-based
# Experimental: Compounds of the invention were tested for their ability as inhibitors of LTA4 hydrolase in a whole blood assay using human, mouse, rat or dog whole blood in a manner similar to that described in Penning, T. D. et al., J. Med. Chem. (2000), 43(4): 721-735. In this assay, compounds were tested for their ability to inhibit LTB4 release upon stimulation with calcium ionophore. The LTB4 levels in supernatants were measured by ELISA.
# [3] = target: T2, recombinant human LTA4 hydrolase (Homo sapiens, UniProt P09960); assay: LTA4 hydrolase homogeneous time resolved fluorescence (HTRF) assay; type: biochemical
# T2 sequence (P09960 1-611): T1 sequence (P09960 1-611)
# Experimental: Compounds of the invention were tested in the LTA4 hydrolase homogeneous time resolved fluorescence (HTRF) assay to determine their ability to inhibit the hydrolysis of LTA4 to LTB4. The assay analyzes the amount of LTB4 produced.
# LTA4 HTRF assay is a two-step assay involving enzymatic conversion of LTA4 to LTB4, and subsequent quantification of LTB4, product with HTRF assay.
# The enzymatic conversion of LTA4 to LTB4 was performed in 384-well plates at ambient temperature in a reaction mixture containing 50 mM HEPES (pH 7.5), 0.5% BSA (fatty acid free), 18 nM recombinant human LTA4 hydrolase, 150 nM LTA4, 1% DMSO in the absence or presence of a compound of the invention. Reaction was stopped after 10 minutes incubation by diluting the incubation mixture 10-fold in 50 mM phosphate, 0.1% casein buffer (pH 7.0).
# LTB4 formed was quantified with the HTRF assay in which free LTB4 competes with LTB4-XL665 conjugate (acceptor) for anti-LTB4 monoclonal antibody labeled with Europium cryptate (donor), thereby inhibiting the fluorescence energy transfer.
# The LTB4 HTRF 384-well assay was carried out by incubating LTB4 samples or standards with LTB4-XL665 conjugate (7.5 ng/well) and anti-LTB4 monoclonal antibody-Europium cryptate conjugate (0.5 ng/well) in 50 mM phosphate, 0.4 M KF and 0.1% casein, buffer (pH 7.0) for two hours at ambient temperature. Plates were read in a RubyStar plate reader (BmG Labtechnologies Inc., NC) simultaneously at 620 nm and 665 nm to obtain signal ratios of 665 nm/620 nm. Results of energy transfer were expressed as delta F (%) which equaled [(signal ratio of sample-signal ratio of negative control)/(signal ratio of negative control)]×100%. Negative controls were control samples without LTB4 or LTB4-XL665.
# Sample LTB4 concentrations were calculated from the LTB4 standard curve using the 4-parameter fit equation. For determination IC50 values for a particular compound of the invention, eight serially diluted compound concentrations (at 1:3.16 dilution) were used in this assay. Controls without a compound of the invention or with a reference compound were run parallel in the same assay plate.
# [4] = read-out: inhibit peptidase activity, IC50 value
# [5] = Homo sapiens, whole blood, read-out: inhibit production of LTB4 in whole blood, IC50 value
# [6] = Table 1, human whole blood, read-out: Human Whole Blood IC50
# [7] = read-out: inhibit LTA4 hydrolase activity, IC50 value
# [8] = Table 1, read-out: Peptidase IC50
# [9] = Table 1, read-out: Hydrolase IC50
Compound,"IC50 [1, 4] [nM]","IC50 [2, 5] [nM]","IC50 [2, 6] [nM]","IC50 [3, 7] [nM]","IC50 [1, 8] [nM]","IC50 [3, 9] [nM]","IC50 ([2]; whole blood, read-out: inhibit production of LTB4 in whole blood, IC50 value) [nM]"
"COC(=O)CCC(=O)NCC(N)CCC(=O)Nc1ccc(Oc2ccccc2)cc1 (stereo in doubt) [Example 6, methyl 3-{[(2R)-2-amino-4-[(4-phenoxyphenyl)carbamoyl]butyl]carbamoyl}propanoate]",215,252,252,,,,
"NC(CCC(=O)NCCN1CCCC1)C(=O)Nc1ccc(Oc2ccc(-n3cccc3)cc2)cc1 (stereo in doubt) [Example 7, (2R)-2-amino-N-{4-[4-(1H-pyrrol-1-yl)phenoxy]phenyl}-N′-[2-(pyrrolidin-1-yl)ethyl]pentanediamide]",25,138,138,38,,,
N[C@@H](CCC(=O)Nc1ccc(OCc2ccccc2)cc1)C(=O)NCc1ccccc1 [(2S)-2-amino-N-benzyl-N′-[4-(benzyloxy)phenyl]pentanediamide],,,,,118,107,
"CNC(=O)C(N)CCC(=O)Nc1ccc(OCc2ccccc2)cc1 (centres unmarked) [Example 1, 2-amino-N5-(4-(benzyloxy)phenyl)-N1-methylpentanediamide]",24,117,117,27,,,
"NC(=O)C(N)CCC(=O)Nc1ccc(Oc2ccccc2)cc1 (centres unmarked) [Example 2, 4-amino-N1-(4-phenoxyphenyl)pentanediamide]",22,143,143,84,,,
"NC(CCC(=O)Nc1ccc(Oc2ccccc2)cc1)C(=O)NCCCl (centres unmarked) [Example 3, 2-amino-N^1-(2-chloroethyl)-N^5-(4-phenoxyphenyl)pentanediamide]",24,83,83,58,,,
"COC(=O)[C@@H](N)CCC(=O)Nc1ccc(Oc2ccc(-n3cccc3)cc2)cc1 [Example 4, methyl N^5-(4-(4-(1H-pyrrol-1-yl)phenoxy)phenyl)glutaminate]",21,55,55,17,,,
"N[C@H](CCC(=O)Nc1ccc(Oc2ccc(-n3cccc3)cc2)cc1)C(=O)NCCc1cnc[nH]1 [Example 9, (2R)-2-amino-N-[2-(1H-imidazol-5-yl)ethyl]-N′-{4-[4-(1H-pyrrol-1-yl)phenoxy]phenyl}pentanediamide]",53,664,664,10,,,
"CCOC(=O)CCNC(=O)[C@H](N)CCC(=O)Nc1ccc(Oc2ccccc2)cc1 [Example 10, ethyl 3-[(2R)-2-amino-4-[(4-phenoxyphenyl)carbamoyl]butanamido]propanoate]",40,,,73,,,
"COC(=O)[C@@H](N)CCC(=O)Nc1ccc(OCC(O)c2ccccc2)cc1 (stereo partly drawn) [Example 11, methyl (2S)-2-amino-4-{[4-(2-hydroxy-2-phenylethoxy)phenyl]carbamoyl}butanoate]",21,113,113,,,,
"COC(=O)[C@@H](N)CCC(=O)Nc1ccc(Nc2ccccc2)cc1 [Example 12, methyl (2S)-2-amino-4-{[4-(phenylamino)phenyl]carbamoyl}butanoate]",213,184,184,,,,
COC(=O)[C@@H](N)CCC(=O)Nc1ccc(OCC(=O)c2ccccc2)cc1 [methyl N5-(4-(2-oxo-2-phenylethoxy)phenyl)glutaminate],,,61,,31,67,
CC(C)(C)OC(=O)[C@@H](N)CCC(=O)Nc1ccc(CCC(=O)c2ccccc2)cc1 [tert-butyl N5-(4-(3-oxo-3-phenylpropyl)phenyl)glutaminate],,,41,,146,,
(2S)-2-amino-N-[2-(pyridin-2-yl)ethyl]-N′-{4-[4-(1H-pyrrol-1-yl)phenoxy]phenyl}pentanediamide [Example 8],32,,,,,,264
